# Source: PubChem BioAssay (NCI)
#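 Assay format: 96-well plates, 48-hour exposure. Abbreviation: GI50, concentration required for 50% inhibition of growth. TGI: concentration producing complete growth inhibition.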
# How the values were obtained:
# Assay in all cases: NCI tumour cell line growth inhibition, 48 h
# P388/ADR leukemia = system: P388/ADR leukemia
# P388 leukemia = system: P388 leukemia
# SN12K1 renal = system: SN12K1 renal
compound,measurement,setting,value
COc1cc([C@@H]2c3cc4c(c(O)c3C[C@H]3COC(=O)[C@@H]32)OCO4)cc(OC)c1OC,TGI,P388/ADR leukemia,35100 nM
same,TGI,P388 leukemia,551 nM
same,GI50,SN12K1 renal,0.0526 nM
same,TGI,SN12K1 renal,0.207 nM
